“And” between values parts separate entries of the source, which are not always exact repeats. Equal entries are not always repeated. Inconclusive results are not listed.
Tested on: nude mice, HT29 intrarenal xenograft, tumor weight T/C
Assay: NCI In Vivo Anticancer Drug Screen. Data for tumor model HT29;CX-1 Human Adenocarcinoma (MER+) (intrarenal inoculation) in NU/NU Swiss (nude) mice
Conditions: endpoint: mean tumor weight change, higher = larger tumour
Procedure: The antitumor activity of compounds was measured in mice bearing transplantable tumors. Survival or tumor size were measured and the results are expressed as the measurement made in the treated group (T) divided by the measurement made in the vehicle treated control group (C). The tumor model used in this assay is HT29;CX-1 Human Adenocarcinoma (MER+) (intrarenal inoculation) in NU/NU Swiss (nude) mice

[1] = dose: 0.5 mg/kg/injection, schedule: Q01DX010 (sc), vehicle: saline

## COc1cccc2c1C(=O)c1c(O)c3c(c(O)c1C2=O)C[C@@](O)(C(C)=O)C[C@@H]3OC1CC(N(Cc2ccccc2)Cc2ccccc2)C(O)C(C)O1 (stereo partly specified)
dose: 25.0 mg/kg/injection, schedule: Q01DX010 (sc), vehicle: water
  T/C: 36 % of control
dose: 31.25 mg/kg/injection, schedule: Q04DX004 (sc), vehicle: water
  T/C: 104 % of control and 212 % of control
dose: 62.5 mg/kg/injection, schedule: Q04DX004 (sc), vehicle: water
  T/C: 97 % of control and 220 % of control

## C=C(OP(=O)(OC)OC)Sc1ccccc1C
dose: 100.0 micrograms/kg/injection, schedule: Q04DX004 (sc), vehicle: Klucel (hydroxypropylcellulose) (HPC)
  T/C: 84 % of control
dose: 400.0 micrograms/kg/injection, schedule: Q04DX004 (sc), vehicle: Klucel (hydroxypropylcellulose) (HPC)
  T/C: 95 % of control
dose: 800.0 micrograms/kg/injection, schedule: Q04DX004 (sc), vehicle: Klucel (hydroxypropylcellulose) (HPC)
  T/C: 118 % of control

## OC(C1CO1)C(O)C1CO1 (stereo unspecified)
[1]
  T/C: 113 % of control
dose: 1.0 mg/kg/injection, schedule: Q01DX010 (sc), vehicle: saline
  T/C: 52 % of control

## O=C(O)C1CC(c2ccccc2)=NN1c1ccccc1 (stereo unspecified)
dose: 75.0 mg/kg/injection, schedule: Q04DX004 (sc), vehicle: water
  T/C: 76 % of control
dose: 150.0 mg/kg/injection, schedule: Q04DX004 (sc), vehicle: water
  T/C: 79 % of control
dose: 300.0 mg/kg/injection, schedule: Q04DX004 (sc), vehicle: water
  T/C: 74 % of control

## CCC(C)Nc1ccc(N)cc1 (stereo unspecified)
dose: 2.25 mg/kg/injection, schedule: Q04DX004 (sc), vehicle: Klucel (hydroxypropylcellulose) (HPC)
  T/C: 64 % of control
dose: 4.5 mg/kg/injection, schedule: Q04DX004 (sc), vehicle: Klucel (hydroxypropylcellulose) (HPC)
  T/C: 64 % of control
dose: 9.0 mg/kg/injection, schedule: Q04DX004 (sc), vehicle: Klucel (hydroxypropylcellulose) (HPC)
  T/C: 101 % of control

## CC(C)[C@](O)(C(=O)OCC1=CC[N+]2([O-])CC[C@@H](O)[C@@H]12)[C@H](C)O (stereo partly specified)
dose: 100.0 mg/kg/injection, schedule: Q01DX010 (sc), vehicle: water
  T/C: 38 % of control
dose: 200.0 mg/kg/injection, schedule: Q01DX010 (sc), vehicle: water
  T/C: 48 % of control
dose: 400.0 mg/kg/injection, schedule: Q01DX010 (sc), vehicle: water
  T/C: 36 % of control
dose: 800.0 mg/kg/injection, schedule: Q01DX010 (sc), vehicle: water
  T/C: 44 % of control

## COc1cccc2c1C(=O)c1c(O)c3c(c(O)c1C2=O)C[C@H](O)C[C@@H]3OC1CC(N)C(O)C(C)O1 (stereo partly specified)
dose: 12.5 mg/kg/injection, schedule: Q01DX010 (sc), vehicle: saline
  T/C: 114 % of control
dose: 25.0 mg/kg/injection, schedule: Q01DX010 (sc), vehicle: saline
  T/C: 41 % of control
dose: 50.0 mg/kg/injection, schedule: Q01DX010 (sc), vehicle: saline
  T/C: 87 % of control

## Cc1c2cc[n+](C)cc2c(C)c2c1[nH]c1ccc(O)cc12
dose: 1.25 mg/kg/injection, schedule: Q04DX004 (sc), vehicle: water
  T/C: 360 % of control
dose: 2.5 mg/kg/injection, schedule: Q04DX004 (sc), vehicle: water
  T/C: 120 % of control

## O=c1n(CC2CO2)c(=O)n(CC2CO2)n1CC1CO1 (stereo unspecified)
dose: 37.5 mg/kg/injection, schedule: Q04DX004 (sc), vehicle: suspension in saline
  T/C: 76 % of control

## COc1cc2c(c(OC)c1OC)-c1c(cc3c(c1OC)OCO3)CC(C)C(C)(O)C2OC(=O)c1ccccc1 (stereo unspecified)
dose: 75.0 mg/kg/injection, schedule: Q04DX004 (sc), vehicle: saline + alcohol
  T/C: 63 % of control

## COc1cc2cc(c1Cl)N(C)C(=O)C[C@H](OC(=O)[C@H](C)N(C)C(C)=O)[C@]1(C)O[C@H]1[C@H](C)[C@@H]1C[C@@](O)(NC(=O)O1)[C@H](OC)C=C/C=C(\C)C2
dose: 50.0 micrograms/kg/injection, schedule: Q01DX010 (sc), vehicle: Klucel (hydroxypropylcellulose) (HPC)
  T/C: 40 % of control
dose: 100.0 micrograms/kg/injection, schedule: Q01DX010 (sc), vehicle: Klucel (hydroxypropylcellulose) (HPC)
  T/C: 93 % of control
dose: 200.0 micrograms/kg/injection, schedule: Q01DX010 (sc), vehicle: Klucel (hydroxypropylcellulose) (HPC)
  T/C: 24 % of control

## C1CN1c1nc(N2CC2)nc(N2CC2)n1
dose: 0.25 mg/kg/injection, schedule: Q01DX010 (sc), vehicle: saline
  T/C: 213 % of control

## CN(C)c1ccc(C(=C2C=CC(=[N+](C)C)C=C2)c2ccc(N(C)C)cc2)cc1 (tested in a mixture with another compound)
dose: 1.25 mg/kg/injection, schedule: Q01DX010 (sc), vehicle: saline with Tween-80
  T/C: 86 % of control
dose: 2.5 mg/kg/injection, schedule: Q01DX010 (sc), vehicle: saline with Tween-80
  T/C: 111 % of control
dose: 5.0 mg/kg/injection, schedule: Q01DX010 (sc), vehicle: saline with Tween-80
  T/C: 100 % of control
dose: 10.0 mg/kg/injection, schedule: Q01DX010 (sc), vehicle: saline with Tween-80
  T/C: 60 % of control

## CC(C)[NH-].CC(C)[NH-].O.O.[Cl][Pt+2][Cl]
dose: 6.25 mg/kg/injection, schedule: Q01DX010 (sc), vehicle: dextrose
  T/C: 77 % of control and 79 % of control
dose: 12.5 mg/kg/injection, schedule: Q01DX010 (sc), vehicle: dextrose
  T/C: 7 % of control and 23 % of control

## OCC1OC(n2cnc3c2NC=NC[C@H]3O)CC1O (stereo partly specified)
dose: 1.0 mg/kg/injection, schedule: Q01DX010 (sc), vehicle: water
  T/C: 168 % of control
dose: 2.0 mg/kg/injection, schedule: Q01DX010 (sc), vehicle: water
  T/C: 176 % of control

## COc1cc2c(c(OC)c1OC)-c1ccc(OC)c(=O)cc1[C@@H](NC(C)=O)CC2
[1]
  T/C: 70 % of control

## NCC1CCC(C(=O)O)CC1 (stereo unspecified)
dose: 400.0 mg/kg/injection, schedule: Q04DX004 (sc), vehicle: saline with Tween-80
  T/C: 119 % of control
dose: 800.0 mg/kg/injection, schedule: Q04DX004 (sc), vehicle: saline with Tween-80
  T/C: 93 % of control
dose: 1600.0 mg/kg/injection, schedule: Q04DX004 (sc), vehicle: saline with Tween-80
  T/C: 112 % of control

## Cc1cc(NS(=O)(=O)c2ccc(N=Nc3cc(N=Nc4ccc(S(=O)(=O)Nc5cc(C)nc(C)n5)cc4)c4c(NC(=O)C(Cl)Cl)cccc4c3OC(=O)C(Cl)Cl)cc2)nc(C)n1 (tested in a mixture with another compound)
dose: 150.0 mg/kg/injection, schedule: Q04DX004 (sc), vehicle: suspension in saline
  T/C: 204 % of control
dose: 1200.0 mg/kg/injection, schedule: Q04DX004 (sc), vehicle: suspension in saline
  T/C: 72 % of control

## c1csc(C[N+]23CN4CN(CN(C4)C2)C3)c1
dose: 100.0 mg/kg/injection, schedule: Q04DX004 (sc), vehicle: saline
  T/C: 76 % of control
dose: 200.0 mg/kg/injection, schedule: Q04DX004 (sc), vehicle: saline
  T/C: 97 % of control
dose: 400.0 mg/kg/injection, schedule: Q04DX004 (sc), vehicle: saline
  T/C: 61 % of control

## O=c1nc(Oc2ccccc2)nc2ncccn12
dose: 50.0 mg/kg/injection, schedule: Q01DX010 (sc), vehicle: saline with Tween-80
  T/C: 312 % of control
dose: 100.0 mg/kg/injection, schedule: Q01DX010 (sc), vehicle: saline with Tween-80
  T/C: 156 % of control

## Cc1c(N)nc(C(CC(N)=O)NCC(N)C(N)=O)nc1C(=O)NC(C(=O)NC(C)C(O)CC(=O)NC(C(=O)NC(OC1OC(C)C(N)C(O)C1O)C(O)c1nc(-c2nc(C(=O)NCCCC(N)CC(=O)NCCCNCCCCN)cs2)cs1)C(C)O)C(OC1OC(CO)C(O)C(O)C1OC1OC(CO)C(O)C(OC(N)=O)C1O)c1cnc[nH]1 (stereo unspecified)
dose: 8.0 mg/kg/injection, schedule: Q04DX004 (sc), vehicle: saline
  T/C: 17 % of control
dose: 16.0 mg/kg/injection, schedule: Q04DX004 (sc), vehicle: saline
  T/C: 21 % of control

## CCCCCCCCCCCCCCCCP(=O)(OCCOCCCCCC)OCCOCCCCCC
dose: 37.5 mg/kg/injection, schedule: Q04DX004 (sc), vehicle: saline
  T/C: 206 % of control
dose: 75.0 mg/kg/injection, schedule: Q04DX004 (sc), vehicle: saline
  T/C: 93 % of control
dose: 300.0 mg/kg/injection, schedule: Q04DX004 (sc), vehicle: saline
  T/C: 178 % of control

## CCN1/C(=C/C=C/C=C\C=C\c2sc3ccc4ccccc4c3[n+]2CC)Sc2ccc3ccccc3c21
dose: 25.0 mg/kg/injection, schedule: Q04DX004 (sc), vehicle: saline with Tween-80
  T/C: 85 % of control
dose: 50.0 mg/kg/injection, schedule: Q04DX004 (sc), vehicle: saline with Tween-80
  T/C: 54 % of control
dose: 100.0 mg/kg/injection, schedule: Q04DX004 (sc), vehicle: saline with Tween-80
  T/C: 123 % of control
dose: 200.0 mg/kg/injection, schedule: Q04DX004 (sc), vehicle: saline with Tween-80
  T/C: 107 % of control

## COC(=O)C(Cl)(Cl)N=Nc1c(Cl)cc(Cl)c(C)c1Cl
dose: 225.0 mg/kg/injection, schedule: Q04DX004 (sc), vehicle: saline with Tween-80
  T/C: 87 % of control
dose: 450.0 mg/kg/injection, schedule: Q04DX004 (sc), vehicle: saline with Tween-80
  T/C: 105 % of control
dose: 900.0 mg/kg/injection, schedule: Q04DX004 (sc), vehicle: saline with Tween-80
  T/C: 81 % of control
dose: 1800.0 mg/kg/injection, schedule: Q04DX004 (sc), vehicle: saline with Tween-80
  T/C: 115 % of control

Source: PubChem BioAssay AID206 (DTP/NCI, 2004)
